Assay results as given in ChEMBL document CHEMBL5154681, “Small Amphiphilic Peptides: Activity Against a Broad Range of Drug-Resistant Bacteria and Structural Insight into Membranolytic Properties” (J Med Chem, 2022).
Values after ≈ are worked out from the molar mass of the structure shown. Active and inactive are the calls of the source. The calls are words filed in the database; no cut-off is given here. Square brackets hold non-standard residues; d marks the D form. Peptide text beside a SMILES is read from it. Dip = N[C@H](C(=O)O)C(c1ccccc1)c1ccccc1; 2Nal = N[C@@H](Cc1ccc2ccccc2c1)C(=O)O

Key:
Staphylococcus aureus [1] = test: Antibacterial activity against Staphylococcus aureus ATCC 29213 incubated for 24 hrs by microtiter plate method; format: functional; conditions: Staphylococcus aureus, ATCC 29213, read-out: MIC
Escherichia coli [2] = test: Antibacterial activity against Escherichia coli ATCC 25922 incubated for 24 hrs by microtiter plate method; format: functional; conditions: Escherichia coli
Enterococcus faecium = test: Antibacterial activity against Enterococcus faecium ATCC 27270 incubated for 24 hrs by microtiter plate method; format: functional
Escherichia coli [3] = test: Antibacterial activity against Escherichia coli NDM-1-resistant ATCC BAA-2452 incubated for 24 hrs by microtiter plate method; format: functional
Klebsiella pneumoniae = test: Antibacterial activity against carbapenem-resistant Klebsiella pneumoniae ATCC BAA-2470 incubated for 24 hrs by microtiter plate method; format: functional
Escherichia coli [4] = test: Antibacterial activity against Escherichia coli ATCC 25922 incubated for 24 hrs; format: functional
Staphylococcus aureus [5] = test: Antibacterial activity against methicillin resistant Staphylococcus aureus ATCC BAA-1556 after 24 hrs in presence of 150 mM of NaCl by microtiter plate method; format: functional
Staphylococcus aureus [6] = test: Antibacterial activity against methicillin resistant Staphylococcus aureus ATCC BAA-1556 after 24 hrs in presence of 6 mM of NH4Cl by microtiter plate method; format: functional
Escherichia coli [7] = test: Antibacterial activity against Escherichia coli ATCC 25922 after 24 hrs in presence of 1 mM of MgCl2 at by microtiter plate method; format: functional
Escherichia coli [8] = test: Antibacterial activity against Escherichia coli ATCC 25922 after 24 hrs in presence of fetal bovine serum by microtiter plate method; format: functional
HepaRG = test: Cytotoxicity against human HPRGC10 assessed as cell viability at 150 ug/ml incubated for 24 hrs by microplate spectrophotometer analysis method relative to control; format: functional; conditions: read-out: Activity
Lipid bilayer [9] = test: Membrano-lytic effect in bacterial inner membrane mimic DOPC/DOPG (7:3) large unilamellar vesicles assessed as calcein leakage measured upto 100 mins for every 10 mins by multimode microplate reader assay; format: cell membranes; conditions: dose 5-50 µg/ml, DDE = dose-dependent effect
Staphylococcus aureus [10] = test: Bactericidal activity against methicillin resistant Staphylococcus aureus ATCC BAA-1556 assessed as time required for complete reduction of bacterial growth at MIC by counting formed colonies; format: functional
Lipid bilayer [11] = test: Membrano-lytic effect in bacterial inner membrane mimic DOPC/DOPG (7:3) large unilamellar vesicles assessed as calcein leakage measured at 50 microg/ml, incubated for 50 mins by multimode microplate reader assay; format: cell membranes; conditions: dose 50.0 µg/ml
Lipid bilayer [12] = test: Membrano-lytic effect in bacterial inner membrane mimic DOPC/DOPG (7:3) large unilamellar vesicles assessed as calcein leakage measured at 5 microg/ml, incubated for 30 mins by multimode microplate reader assay; format: cell membranes; conditions: dose 5.0 µg/ml
Cell membrane [13] = test: Membrano-lytic effect in cytoplasmic membrane of Escherichia coli ATCC BAA-2452 assessed as disruption by measuring propidium iodide fluorescence at 4 times MIC incubated for 1 hr by FACscan flow cytometer analysis
Escherichia coli [14] = test: Antibacterial activity against Escherichia coli ATCC BAA-2452 assessed as loss of membrane fluid at 4 times of MIC incubated for 30 mins by FE-SEM analysis; format: functional, organism-based
[15] = Proteolytic stability in human plasma at 100 uM incubated for 30 mins by Q-TOF LC/MS analysis relative to control; format: ADME, cell-free; conditions: read-out: Stability
Lipid bilayer [16] = test: Induction of membrane disruption in bacterial inner membrane mimic DOPC/DOPG (7:3) large unilamellar vesicles assessed as decrease in particle size of liposome at 1:1 compound to lipid ratio measured after 90 mins by dynamic light scattering analysis; format: cell membranes
Enterococcus faecalis = test: Potency index, ratio of daptomycin MIC to test compound MIC for antibacterial activity against vancomycin resistant Enterococcus faecalis ATCC 51575; format: functional
[17] = Selectivity ratio of MIC for antibacterial activity against Pseudomonas aeruginosa ATCC 10145 to MIC for antibacterial activity against imipenem-resistant Pseudomonas aeruginosa ATCC BAA-1744; format: functional
Cell membrane [18] = test: Membrano-lytic effect in cytoplasmic membrane of methicillin resistant Staphylococcus aureus ATCC BAA-1556 assessed as disruption by measuring propidium iodide fluorescence incubated for 1 hr by FACscan flow cytometer analysis; conditions: DDE = dose-dependent effect
Cell membrane [19] = test: Membrano-lytic effect in cytoplasmic membrane of Escherichia coli ATCC BAA-2452 assessed as disruption by measuring propidium iodide fluorescence incubated for 1 hr by FACscan flow cytometer analysis; conditions: DDE = dose-dependent effect
Lipid bilayer [20] = test: Membrano-lytic effect in bacterial inner membrane mimic DOPC/DOPG (7:3) large unilamellar vesicles assessed as calcein leakage measured at 50 microg/ml, incubated for 40 mins by multimode microplate reader assay; format: cell membranes; conditions: dose 50.0 µg/ml

Row | Structure (SMILES) | MIC (Staphylococcus aureus [1]) [µg/mL] | MIC (Enterococcus faecium) [µg/mL] | MIC (Escherichia coli [3]) [µg/mL] | MIC (Klebsiella pneumoniae) [µg/mL] | MBC (Escherichia coli [4]) [µg/mL] | MIC (Staphylococcus aureus [5]) [µg/mL] | MIC (Staphylococcus aureus [6]) [µg/mL] | MIC (Escherichia coli [7]) [µg/mL] | MIC (Escherichia coli [8]) [µg/mL] | viability at 150 µg/mL (HepaRG) [%] | Activity (Lipid bilayer [9]) | Activity (Staphylococcus aureus [10]) | Activity (Lipid bilayer [12]) [%] | Activity (Cell membrane [13]) [%] | Activity (Escherichia coli [14]) | remaining at 0.5 h, 100 µM [15] [%] | Activity (Lipid bilayer [16]) | Ratio (Enterococcus faecalis) | Ratio [17] | Activity (Cell membrane [18]) | other results
1 | N=C(N)NCCC[C@@H]1NC(=O)[C@H](CCCNC(=N)N)NC(=O)[C@H](CCCNC(=N)N)NC(=O)[C@H](C(c2ccccc2)c2ccccc2)NC(=O)[C@H](C(c2ccccc2)c2ccccc2)NC(=O)[C@H](C(c2ccccc2)c2ccccc2)NC(=O)[C@H](CCCNC(=N)N)NC1=O (cyclo(RRRR[Dip][Dip][Dip])) | 3.1 (≈ 2.39 µM) | 3.1 (≈ 2.39 µM) | 12.5 (≈ 9.66 µM) | 12.5 (≈ 9.66 µM) | 25 (≈ 19.3 µM) | 3.1 | 3.1 | 12.5 | 50 | 61 | Dde | Active | 30 | 78 | Active | 86 | Active | 2 | 2 | Dde | MIC (Escherichia coli [2]; ATCC 25922, read-out: MIC): 12.5 µg/mL (≈ 9.66 µM); Activity (Lipid bilayer [11]): 100%; Activity (Cell membrane [19]): Dde
2 | N=C(N)NCCC[C@@H]1NC(=O)[C@H](CCCNC(=N)N)NC(=O)[C@H](CCCNC(=N)N)NC(=O)[C@H](Cc2ccc3ccccc3c2)NC(=O)[C@H](Cc2ccc3ccccc3c2)NC(=O)[C@H](Cc2ccc3ccccc3c2)NC(=O)[C@H](CCCNC(=N)N)NC1=O (cyclo(RRRR[2Nal][2Nal][2Nal])) | 3.1 (≈ 2.55 µM) | 3.1 (≈ 2.55 µM) | 12.5 (≈ 10.3 µM) | 12.5 (≈ 10.3 µM) | 100 (≈ 82.2 µM) | 3.1 | 3.1 | 25 | > 50 | 61 | Dde | Active | 30 | 88 | Active | 82 | Active | 2 | 2 | Dde | MIC (Escherichia coli [2]; ATCC 25922, 24 h, read-out: MIC): 25 µg/mL (≈ 20.6 µM); Activity (Lipid bilayer [20]): 100%; Activity (Cell membrane [19]): Dde
